# The source made the active and inactive calls. The rule behind the calls is not given here.
# Experiments:
# [1] = target: Protein smoothened (Homo sapiens, UniProt Q99835); test: Antagonist activity at human SMO expressed in HEPM cells assessed as reduction of GLI expression after 24 hrs by Quantigene assay; assay type: functional, cell-based
# [2] = Metabolic stability in rat hepatocyte assessed as compound remaining at 30 mins; assay type: ADME, cell-based; settings: hepatocytes, read-out: Stability
# [3] = Clearance in rat liver microsomes assessed as compound metabolized after 30 mins; assay type: ADME, Microsome; settings: read-out: Activity
# [4] = Clearance in rat at 0.5 mg/kg, iv; assay type: ADME, organism-based; parameters: dose 0.5 mg/kg, route intravenous; settings: in vivo
# [5] = Oral bioavailability in rat at 5 mg/kg; assay type: ADME, organism-based; settings: in vivo
# [6] = target: Protein smoothened (Mus musculus, UniProt P56726); test: Antagonist activity at mouse SMO expressed in NIH/3T3 cells transfected with Gli-dependent luciferase-reporter after 15 hrs by luciferase reporter gene assay using luminometer; assay type: functional, cell-based
# [7] = target: Protein smoothened (Rattus norvegicus) (UniProt P97698); test: Antagonist activity at SMO in rat hepatocyte; assay type: functional, cell-based
# Chain of Protein smoothened (Rattus norvegicus) (P97698 whole entry): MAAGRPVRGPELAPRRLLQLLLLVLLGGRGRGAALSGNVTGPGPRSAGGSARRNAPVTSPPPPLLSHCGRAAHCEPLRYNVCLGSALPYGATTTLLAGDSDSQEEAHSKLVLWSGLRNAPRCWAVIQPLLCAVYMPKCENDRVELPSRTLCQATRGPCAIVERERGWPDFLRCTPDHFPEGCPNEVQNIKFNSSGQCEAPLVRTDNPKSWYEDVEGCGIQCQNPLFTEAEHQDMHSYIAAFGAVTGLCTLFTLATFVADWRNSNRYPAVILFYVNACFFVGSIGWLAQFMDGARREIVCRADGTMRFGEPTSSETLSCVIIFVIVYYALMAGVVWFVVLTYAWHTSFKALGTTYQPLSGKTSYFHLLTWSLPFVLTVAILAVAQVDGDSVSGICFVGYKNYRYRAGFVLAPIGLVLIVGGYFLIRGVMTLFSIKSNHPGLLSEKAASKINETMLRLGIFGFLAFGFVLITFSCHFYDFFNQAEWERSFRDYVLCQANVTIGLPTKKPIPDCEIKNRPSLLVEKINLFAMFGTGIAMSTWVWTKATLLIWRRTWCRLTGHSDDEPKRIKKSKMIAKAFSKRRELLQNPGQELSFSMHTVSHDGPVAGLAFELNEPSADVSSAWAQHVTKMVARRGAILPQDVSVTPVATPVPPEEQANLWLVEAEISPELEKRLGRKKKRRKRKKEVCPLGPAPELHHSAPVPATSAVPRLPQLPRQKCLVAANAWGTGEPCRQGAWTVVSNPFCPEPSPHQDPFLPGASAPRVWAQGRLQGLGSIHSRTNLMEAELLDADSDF
# Chain of Protein smoothened (Homo sapiens, UniProt Q99835) (Q99835 whole entry): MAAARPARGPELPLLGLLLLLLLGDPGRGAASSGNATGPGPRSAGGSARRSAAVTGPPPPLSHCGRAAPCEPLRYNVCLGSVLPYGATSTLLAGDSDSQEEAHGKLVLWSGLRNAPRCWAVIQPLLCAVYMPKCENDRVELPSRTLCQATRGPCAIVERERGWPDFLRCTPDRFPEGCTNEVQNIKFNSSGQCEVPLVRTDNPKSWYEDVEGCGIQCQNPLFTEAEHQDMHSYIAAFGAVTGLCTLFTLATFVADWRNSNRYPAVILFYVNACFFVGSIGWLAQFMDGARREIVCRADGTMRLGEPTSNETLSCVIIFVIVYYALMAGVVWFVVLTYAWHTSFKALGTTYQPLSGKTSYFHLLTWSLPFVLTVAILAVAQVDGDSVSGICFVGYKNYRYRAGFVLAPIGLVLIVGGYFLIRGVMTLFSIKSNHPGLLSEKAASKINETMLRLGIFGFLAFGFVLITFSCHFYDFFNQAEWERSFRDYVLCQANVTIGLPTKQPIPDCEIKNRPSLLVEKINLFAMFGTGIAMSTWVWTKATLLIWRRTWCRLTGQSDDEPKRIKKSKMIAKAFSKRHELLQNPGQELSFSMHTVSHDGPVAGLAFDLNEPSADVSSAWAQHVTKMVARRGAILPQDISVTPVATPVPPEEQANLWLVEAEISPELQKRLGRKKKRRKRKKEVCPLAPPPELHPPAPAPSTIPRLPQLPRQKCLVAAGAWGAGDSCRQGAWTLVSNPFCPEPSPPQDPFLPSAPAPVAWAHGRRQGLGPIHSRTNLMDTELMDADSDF
# Chain of Protein smoothened (Mus musculus, UniProt P56726) (P56726 whole entry): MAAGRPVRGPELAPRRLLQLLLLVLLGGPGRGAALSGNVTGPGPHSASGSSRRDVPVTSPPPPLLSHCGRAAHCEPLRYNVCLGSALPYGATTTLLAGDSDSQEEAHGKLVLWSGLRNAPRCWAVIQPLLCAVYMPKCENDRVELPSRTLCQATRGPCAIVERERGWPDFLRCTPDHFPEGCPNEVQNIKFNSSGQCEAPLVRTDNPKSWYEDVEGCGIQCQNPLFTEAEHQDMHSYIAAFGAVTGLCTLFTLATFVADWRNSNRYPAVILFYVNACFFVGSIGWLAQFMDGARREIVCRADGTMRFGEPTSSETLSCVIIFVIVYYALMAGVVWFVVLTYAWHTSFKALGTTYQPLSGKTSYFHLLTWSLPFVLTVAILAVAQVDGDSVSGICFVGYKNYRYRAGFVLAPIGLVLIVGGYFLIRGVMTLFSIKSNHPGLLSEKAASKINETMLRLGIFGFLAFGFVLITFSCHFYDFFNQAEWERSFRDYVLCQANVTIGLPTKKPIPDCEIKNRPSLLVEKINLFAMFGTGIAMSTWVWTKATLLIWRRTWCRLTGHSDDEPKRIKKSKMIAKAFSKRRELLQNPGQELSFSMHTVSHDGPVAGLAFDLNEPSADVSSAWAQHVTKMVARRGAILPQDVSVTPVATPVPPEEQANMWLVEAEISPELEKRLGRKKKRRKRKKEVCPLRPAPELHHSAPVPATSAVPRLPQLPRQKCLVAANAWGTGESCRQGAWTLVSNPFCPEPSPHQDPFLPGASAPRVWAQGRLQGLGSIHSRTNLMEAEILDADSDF
SMILES,IC50 [1] [nM],other results
Cc1oc(-c2ccc(NC(=O)c3ccccc3Cl)cc2)nc1-c1ccccc1,44,–
O=C(Nc1ccc(-c2ccnc(-c3ccccc3)c2)cc1)c1ccccc1Cl,93,–
O=C(Nc1ccc(-c2nnc(-c3ccccc3)o2)cc1)c1ccccc1Cl,89,–
O=C(Nc1ccc(-c2csc(-c3ccccc3)n2)cc1)c1ccccc1Cl,109,–
O=C(Nc1ccc(-c2cccc(-c3ccccc3)c2)cc1)c1ccccc1Cl,6.4,–
O=C(Nc1ccc(-c2ccnc(-c3ccccc3)n2)cc1)c1ccccc1Cl,27,–
O=C(Nc1ccc(-c2cccc(-c3ccccc3)n2)cc1)c1ccccc1Cl,33,–
O=C(Nc1ccc(-c2nc(-c3ccccc3)cs2)cc1)c1ccccc1Cl,27,–
O=C(Nc1ccc(-c2cncc(-c3ccccc3)c2)cc1)c1ccccc1Cl,28,–
O=C(Nc1ccc(-c2cc(-c3ccccc3)ncn2)cc1)c1ccccc1Cl,48,–
O=C(Nc1ccc(CC(O)c2ccccc2)cc1)c1ccccc1Cl (racemic),14,–
O=C(Nc1ccc(NC(=O)c2ccccc2Cl)cc1)c1ccccc1,13,remaining at 0.5 h [2]: 3%; metabolised at 0.5 h [3]: < 10%; clearance [4]: 23.3 mL/min/kg; bioavailability [5]: 12%
O=C(Nc1ccc(/C=C/c2ccccc2)cc1)c1ccccc1Cl,49,–
O=C(Nc1ccc(-c2nccc(-c3ccccc3)n2)cc1)c1ccccc1Cl,37,–
O=C(Cc1ccc(NC(=O)c2ccccc2Cl)cc1)c1ccccc1,79,–
O=C(Nc1ccc(-c2coc(-c3ccccc3)n2)cc1)c1ccccc1Cl,93,–
O=C(Nc1ccc(-c2cc(-c3ccccc3)ccn2)cc1)c1ccccc1Cl,7.2,metabolised at 0.5 h [3]: 41%; clearance [4]: 2.83 mL/min/kg; bioavailability [5]: 27%; IC50 [6]: 26 nM
O=C(Nc1ccc(-c2ncc(-c3ccccc3)o2)cc1)c1ccccc1Cl,40,–
O=C(Nc1ccc(-c2nc(-c3ccccc3)c(C(F)(F)F)o2)cc1)c1ccccc1Cl,31,metabolised at 0.5 h [3]: < 10%; clearance [4]: 3.83 mL/min/kg; bioavailability [5]: 47%; IC50 [6]: 17 nM
CC(=O)Nc1ccc(NC(=O)c2ccccc2Cl)cc1,–,inhibition [7]: inactive
O=C(Nc1ccc(-c2nc(-c3ccccc3)co2)cc1)c1ccccc1Cl,63,–

# Reference: ChEMBL document CHEMBL1821579, “Discovery of amide replacements that improve activity and metabolic stability of a bis-amide smoothened antagonist hit” (Bioorg Med Chem Lett, 2011)
